# Results as given in patent US20190030042A1, “Method for Treating Dementia with Lewy Bodies” (BrainX CORPORATION, priority 2017, published 2019).
# System: DLB rats
# Experiment: Object recognition test in DLB rats
# Assay type: in vivo, rat
# Conditions: group A3, 100 mg/kg/day IP for 27 days, test on 27th day, p<0.05
# Method: Saline is also used to be administrated to the normal rats of group A1.
# Recognition ability of the rats of groups A1-A3 is measured using the object recognition test (Ho et al., Behav Brain Res 268: 177-184, 2014). Specifically, on the 25th & 26th day, the rat “M” under the test is placed in an open box, shown as FIG. 2a, for 5 minutes. Three flavorless objects (objects O1, O2 & O3) with the same size, color, shape and material are respectively fixed at three corners of the open box.
# On the 27th day, the rat “M” under the test is first placed in the open box shown as FIG. 2a, and the time spent exploring the object O1 (T01) and the total time spent exploring the objects O1, O2 & O3 (TO1+O2+O3) are recorded, respectively. The percentage of the exploration time spent on the object O1 is calculated as (TO1/TO1+O2+O3)*100%. After 5 minutes, a novel object O4 with different size, color, shape and material is used to replace the object O1 (shown in FIG. 2b), and the rat “M” under the test is placed in the open box. The time spent exploring the novel object O4 (TO4) and the total time spent exploring the objects O2 & O3 and the novel object O4 (TO2+O3+O4) are respectively recorded, and the percentage of the exploration time spent on the novel object O4 is calculated as (TO4/TO2+O3+O4)*100%.
structure (smiles),measurement,value
CO/N=C(\C(=O)N[C@@H]1C(=O)N2C(C(=O)O)=C(CSc3nc(=O)c(=O)[nH]n3C)CS[C@H]12)c1csc(N)n1 [ceftriaxone],recognition of the novel object O4 (percentage of time exploring object),can recognize the novel object O4
